Columns and labels:
[1] = target: T1, Ephrin type-B receptor 2 (Homo sapiens) (UniProt P29323); assay: Inhibition of EPHB2 (unknown origin) assessed as residual activity at 10 uM incubated for 5 mins in presence of [gamma-33ATP] by scintillation counting based radiometry assay relative to control
T1 sequence (whole entry): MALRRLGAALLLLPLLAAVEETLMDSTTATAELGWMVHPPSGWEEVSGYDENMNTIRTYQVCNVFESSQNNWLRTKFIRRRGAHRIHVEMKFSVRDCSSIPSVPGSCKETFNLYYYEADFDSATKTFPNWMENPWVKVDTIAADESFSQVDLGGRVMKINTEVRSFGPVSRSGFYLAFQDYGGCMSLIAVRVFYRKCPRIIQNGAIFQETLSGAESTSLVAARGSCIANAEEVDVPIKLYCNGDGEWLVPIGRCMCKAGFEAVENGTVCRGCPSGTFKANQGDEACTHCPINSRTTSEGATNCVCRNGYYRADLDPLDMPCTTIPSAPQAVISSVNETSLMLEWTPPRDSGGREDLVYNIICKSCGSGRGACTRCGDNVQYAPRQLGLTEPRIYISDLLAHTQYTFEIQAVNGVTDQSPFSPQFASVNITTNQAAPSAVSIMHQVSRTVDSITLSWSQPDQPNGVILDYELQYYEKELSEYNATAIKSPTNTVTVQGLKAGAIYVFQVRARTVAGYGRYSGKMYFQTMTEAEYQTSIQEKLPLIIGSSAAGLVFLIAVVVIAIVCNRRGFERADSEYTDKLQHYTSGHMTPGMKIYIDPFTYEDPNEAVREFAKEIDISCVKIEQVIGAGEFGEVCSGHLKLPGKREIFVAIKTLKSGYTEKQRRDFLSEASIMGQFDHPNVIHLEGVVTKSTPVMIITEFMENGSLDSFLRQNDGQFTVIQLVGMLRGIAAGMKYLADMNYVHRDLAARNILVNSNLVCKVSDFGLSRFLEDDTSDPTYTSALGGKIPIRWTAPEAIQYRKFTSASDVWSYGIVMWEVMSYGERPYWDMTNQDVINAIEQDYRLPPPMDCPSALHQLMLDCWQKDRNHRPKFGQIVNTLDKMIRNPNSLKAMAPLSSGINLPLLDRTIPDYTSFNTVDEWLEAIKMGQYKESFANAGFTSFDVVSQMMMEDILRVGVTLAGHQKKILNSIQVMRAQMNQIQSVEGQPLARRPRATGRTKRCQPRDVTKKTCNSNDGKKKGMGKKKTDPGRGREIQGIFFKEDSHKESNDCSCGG

[2] = Metabolic stability in mouse liver microsomes assessed as half life at 3 uM measured up to 30 mins in presence of NADPH by […] analysis; assay type: ADME, Microsome
[3] = target: Proto-oncogene tyrosine-protein kinase Src (Homo sapiens, UniProt P12931); assay: Inhibition of SRC (unknown origin) assessed as residual activity at 10 uM incubated for 5 mins in presence of [gamma-33ATP] by scintillation counting based radiometry assay relative to control
Proto-oncogene tyrosine-protein kinase Src, sequence (P12931 2-536 limits assumed): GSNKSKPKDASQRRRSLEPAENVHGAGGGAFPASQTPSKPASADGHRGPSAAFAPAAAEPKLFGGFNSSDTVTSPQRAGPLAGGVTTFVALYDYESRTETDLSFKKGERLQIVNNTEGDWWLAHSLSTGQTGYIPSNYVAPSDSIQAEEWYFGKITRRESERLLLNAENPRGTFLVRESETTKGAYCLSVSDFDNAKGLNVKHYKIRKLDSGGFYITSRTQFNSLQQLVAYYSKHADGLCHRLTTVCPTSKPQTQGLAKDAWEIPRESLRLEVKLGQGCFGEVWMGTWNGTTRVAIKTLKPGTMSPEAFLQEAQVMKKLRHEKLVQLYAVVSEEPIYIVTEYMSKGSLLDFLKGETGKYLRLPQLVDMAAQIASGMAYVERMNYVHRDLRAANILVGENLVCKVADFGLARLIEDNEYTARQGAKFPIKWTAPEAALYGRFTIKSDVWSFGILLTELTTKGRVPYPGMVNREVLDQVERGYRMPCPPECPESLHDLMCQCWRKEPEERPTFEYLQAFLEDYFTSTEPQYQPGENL

[4] = target: Serine/threonine-protein kinase Nek6 (Homo sapiens, UniProt Q9HC98); assay: Inhibition of NEK6 (unknown origin) assessed as residual activity at 10 uM incubated for 5 mins in presence of [gamma-33ATP] by scintillation counting based radiometry assay relative to control
Serine/threonine-protein kinase Nek6, sequence (Q9HC98 whole entry): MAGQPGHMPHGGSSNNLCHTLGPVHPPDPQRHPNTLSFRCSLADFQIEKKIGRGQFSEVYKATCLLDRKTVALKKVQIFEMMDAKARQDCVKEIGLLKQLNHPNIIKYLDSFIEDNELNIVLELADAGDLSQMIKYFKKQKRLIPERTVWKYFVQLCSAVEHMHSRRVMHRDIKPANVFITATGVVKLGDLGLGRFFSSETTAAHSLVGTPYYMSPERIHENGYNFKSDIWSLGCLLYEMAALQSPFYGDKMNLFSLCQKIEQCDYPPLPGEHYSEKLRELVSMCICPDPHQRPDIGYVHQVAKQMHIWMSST

[5] = Metabolic stability in human liver microsomes assessed as half life at 3 uM measured up to 30 mins in presence of NADPH by […] analysis; assay type: ADME, Microsome
[6] = target: T2, Mitogen-activated protein kinase kinase kinase kinase 3 (Homo sapiens) (UniProt Q8IVH8); assay: Inhibition of MAP4K3 (unknown origin) assessed as residual activity at 10 uM incubated for 5 mins in presence of [gamma-33ATP] by scintillation counting based radiometry assay relative to control
T2 sequence (whole entry): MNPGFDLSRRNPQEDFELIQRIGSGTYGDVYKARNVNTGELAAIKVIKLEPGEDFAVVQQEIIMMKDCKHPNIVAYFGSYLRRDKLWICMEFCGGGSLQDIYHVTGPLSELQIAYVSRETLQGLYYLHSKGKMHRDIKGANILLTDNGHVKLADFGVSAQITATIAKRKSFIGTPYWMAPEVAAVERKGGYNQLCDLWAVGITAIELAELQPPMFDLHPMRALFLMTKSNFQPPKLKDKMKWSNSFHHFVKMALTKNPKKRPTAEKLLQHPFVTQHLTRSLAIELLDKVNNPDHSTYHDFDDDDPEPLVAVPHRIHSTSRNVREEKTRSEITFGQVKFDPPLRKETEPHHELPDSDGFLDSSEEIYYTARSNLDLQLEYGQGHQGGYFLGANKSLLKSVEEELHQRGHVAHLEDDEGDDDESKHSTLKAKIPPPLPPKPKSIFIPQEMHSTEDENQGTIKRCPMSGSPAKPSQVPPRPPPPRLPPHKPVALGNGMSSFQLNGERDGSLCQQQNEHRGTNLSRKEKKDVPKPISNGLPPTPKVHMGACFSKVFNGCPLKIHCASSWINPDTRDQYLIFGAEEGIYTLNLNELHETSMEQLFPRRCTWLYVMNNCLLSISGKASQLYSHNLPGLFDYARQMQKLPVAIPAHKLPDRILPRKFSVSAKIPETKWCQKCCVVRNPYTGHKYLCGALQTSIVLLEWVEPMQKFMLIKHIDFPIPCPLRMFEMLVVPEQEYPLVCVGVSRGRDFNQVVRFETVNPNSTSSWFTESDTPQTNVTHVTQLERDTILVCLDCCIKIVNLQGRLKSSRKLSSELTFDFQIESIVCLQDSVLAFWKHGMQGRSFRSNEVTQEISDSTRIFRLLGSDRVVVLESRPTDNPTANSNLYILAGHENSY

Row | Activity [1] [%] | half-life at 3 µM [2] [min] | Activity [3] [%] | Activity [4] [%] | half-life at 3 µM [5] [min] | Activity [6] [%] | Compound
1 | 1 | 16.8 | 15 | 9 | 39.8 | 14 | Cc1ccc(C(=O)Nc2ccc(CN3Cc4cn[nH]c4C3)c(Cl)c2)cc1C#Cc1cnc2cccnn12
2 | 25 | 7.89 | 74 | 97 | 7.89 | 107 | Cc1cn(-c2cc(NC(=O)c3ccc(C)c(Nc4nccc(-c5cccnc5)n4)c3)cc(C(F)(F)F)c2)cn1 [NILOTINIB]

Source: ChEMBL document CHEMBL4602709 (ACS Med Chem Lett, 2020)
